The source made the active and inactive calls. The rule behind the calls is not given here.
Columns and labels:
Mus musculus [1] = species: Mus musculus; experiment: Compound was evaluated for antinociceptive activity in mouse; IA means inactive; assay type: functional, organism-based
[2] = target: Delta-type opioid receptor (Rattus norvegicus, UniProt P33533); experiment: Compound was evaluated for its ability to displace [3H]p-CI-DPDPE in C6 glioma cells expressing the cloned Opioid receptor delta 1; assay type: cell-based
Delta-type opioid receptor, sequence (P33533 whole entry): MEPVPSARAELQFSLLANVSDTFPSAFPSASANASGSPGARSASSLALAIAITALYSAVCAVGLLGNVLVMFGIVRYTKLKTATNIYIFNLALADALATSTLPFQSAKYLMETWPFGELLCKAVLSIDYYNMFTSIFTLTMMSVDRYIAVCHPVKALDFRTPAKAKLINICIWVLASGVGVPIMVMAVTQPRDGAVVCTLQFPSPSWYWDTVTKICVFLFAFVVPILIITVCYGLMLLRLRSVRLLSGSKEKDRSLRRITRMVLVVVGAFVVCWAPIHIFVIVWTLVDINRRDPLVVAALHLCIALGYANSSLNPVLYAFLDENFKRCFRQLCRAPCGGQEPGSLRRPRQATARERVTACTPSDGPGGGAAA

[3] = target: Kappa-type opioid receptor (Rattus norvegicus, UniProt P34975); experiment: Compound was evaluated for its ability to displace [3H]U-69593 in CHO cells expressing the cloned Opioid receptor kappa 1; assay type: cell-based
Kappa-type opioid receptor, sequence (P34975 whole entry): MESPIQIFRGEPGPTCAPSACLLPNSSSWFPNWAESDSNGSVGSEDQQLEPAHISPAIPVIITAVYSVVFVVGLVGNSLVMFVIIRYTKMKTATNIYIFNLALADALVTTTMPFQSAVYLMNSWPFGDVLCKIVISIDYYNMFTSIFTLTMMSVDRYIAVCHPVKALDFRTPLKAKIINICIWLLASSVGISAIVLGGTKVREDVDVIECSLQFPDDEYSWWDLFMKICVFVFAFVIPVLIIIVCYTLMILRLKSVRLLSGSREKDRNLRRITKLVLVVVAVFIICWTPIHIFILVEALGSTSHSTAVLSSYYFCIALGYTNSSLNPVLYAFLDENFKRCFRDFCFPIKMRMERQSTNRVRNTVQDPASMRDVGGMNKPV

Mus musculus [4] = species: Mus musculus; experiment: Compound was evaluated for antinociceptive activity in mouse using tail flick vs morphine assay; Inactive; assay type: functional, organism-based
Mus musculus [5] = species: Mus musculus; experiment: Compound was evaluated for antinociceptive activity in mouse using tail flick assay; Inactive; assay type: functional, organism-based
Mus musculus [6] = species: Mus musculus; experiment: Compound was evaluated for antinociceptive activity in mouse using hot plate assay; Inactive; assay type: functional, organism-based
[7] = target: Opioid receptors; mu & delta (Homo sapiens) (UniProt P41143+P35372); experiment: Ratio of binding affinity to mu receptor to that of delta receptor; assay type: protein assay
Opioid receptors; mu & delta (Homo sapiens), sequence (P35372 whole entry, looked up): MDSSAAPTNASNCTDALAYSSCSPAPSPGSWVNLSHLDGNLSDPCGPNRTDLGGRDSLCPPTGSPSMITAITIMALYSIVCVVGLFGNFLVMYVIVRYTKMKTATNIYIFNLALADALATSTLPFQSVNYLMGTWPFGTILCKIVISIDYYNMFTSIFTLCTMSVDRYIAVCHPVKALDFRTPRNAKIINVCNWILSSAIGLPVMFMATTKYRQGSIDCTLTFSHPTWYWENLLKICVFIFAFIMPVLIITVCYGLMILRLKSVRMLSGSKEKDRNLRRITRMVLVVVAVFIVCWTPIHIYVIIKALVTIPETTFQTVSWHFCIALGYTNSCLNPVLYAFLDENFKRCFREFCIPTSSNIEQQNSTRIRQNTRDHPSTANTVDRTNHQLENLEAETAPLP
Opioid receptors; mu & delta (Homo sapiens), sequence (P41143 whole entry, looked up): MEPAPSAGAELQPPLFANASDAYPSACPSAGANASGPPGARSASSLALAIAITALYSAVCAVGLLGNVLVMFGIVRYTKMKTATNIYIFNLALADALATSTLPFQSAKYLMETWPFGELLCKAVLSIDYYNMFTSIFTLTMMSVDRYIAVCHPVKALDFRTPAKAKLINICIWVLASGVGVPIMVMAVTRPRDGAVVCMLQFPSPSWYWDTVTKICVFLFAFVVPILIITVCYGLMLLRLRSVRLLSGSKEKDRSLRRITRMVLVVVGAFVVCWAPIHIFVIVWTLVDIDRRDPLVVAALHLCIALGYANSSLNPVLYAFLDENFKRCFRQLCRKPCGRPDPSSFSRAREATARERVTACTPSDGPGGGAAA

Mu-type opioid receptor = Mu-type opioid receptor (Rattus norvegicus, UniProt P33535); experiment: Compound was evaluated for its ability to displace [3H]DAMGO in C6 glioma cells expressing the cloned Opioid receptor mu 1; assay type: cell-based
Mu-type opioid receptor, sequence (P33535 whole entry): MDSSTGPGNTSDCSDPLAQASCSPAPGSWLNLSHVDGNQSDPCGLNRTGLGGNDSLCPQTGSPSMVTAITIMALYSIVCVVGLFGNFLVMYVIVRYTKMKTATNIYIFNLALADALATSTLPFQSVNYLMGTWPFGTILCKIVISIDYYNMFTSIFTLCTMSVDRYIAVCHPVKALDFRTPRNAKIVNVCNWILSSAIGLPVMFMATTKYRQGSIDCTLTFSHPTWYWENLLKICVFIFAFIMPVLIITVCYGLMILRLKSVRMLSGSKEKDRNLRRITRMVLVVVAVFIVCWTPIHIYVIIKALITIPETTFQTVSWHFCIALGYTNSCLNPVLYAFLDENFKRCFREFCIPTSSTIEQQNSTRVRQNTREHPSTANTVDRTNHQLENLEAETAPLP

Mus musculus [8] = species: Mus musculus; experiment: Compound was evaluated for antinociceptive activity in mouse using paraphenylquinone assay; Inactive; assay type: functional, organism-based
Mus musculus [9] = species: Mus musculus; experiment: Compound was evaluated for antinociceptive activity in mouse using tail flick assay; assay type: functional
Mus musculus [10] = species: Mus musculus; experiment: Compound was evaluated for antinociceptive activity in mouse using paraphenylquinone assay; assay type: functional
Mus musculus [11] = species: Mus musculus; experiment: Compound was evaluated for antinociceptive activity in mouse using hot plate assay; assay type: functional
Mus musculus [12] = species: Mus musculus; experiment: Compound was evaluated for antinociceptive activity in mouse; assay type: functional
Mus musculus [13] = species: Mus musculus; experiment: Compound was evaluated for antinociceptive activity in mouse using tail flick vs morphine assay; assay type: functional

Oc1ccc2c3c1O[C@H]1c4[nH]c5ccccc5c4C[C@@]4(O)[C@@H](C2)N(CC2CC2)CC[C@]314 [NALTRINDOLE]
Activity (Mus musculus [1]): inactive
Ki [2]: 0.04 nM
Ki [3]: 5.8 nM

Oc1ccc2c3c1OC1c4[nH]c5ccccc5c4C[C@@]4(O)[C@@H](C2)N(CC2CCCCC2)CCC314 (some centres undefined)
Activity (Mus musculus [4]): inactive
Ki [2]: 94.5 nM
Activity (Mus musculus [5]): inactive
Activity (Mus musculus [6]): inactive
Ki [3]: 1110 nM
Ratio [7]: 20
Ki (Mu-type opioid receptor): 1920 nM
Activity (Mus musculus [8]): inactive

Oc1ccc2c3c1OC1c4[nH]c5ccccc5c4C[C@@]4(O)[C@@H](C2)N(CCC2CCCCC2)CCC314 (some centres undefined)
Activity (Mus musculus [9]): 3.86 mg/kg
Ki [2]: 181 nM
Activity (Mus musculus [10]): 0.39 mg/kg
Ki [3]: 378 nM
Ratio [7]: 0
Ki (Mu-type opioid receptor): 7.3 nM
Activity (Mus musculus [11]): 2.42 mg/kg

C=CCN1CC[C@]23c4c5ccc(O)c4O[C@H]2C(=O)CC[C@@]3(O)[C@H]1C5 [NALOXONE]
AD50 (Mus musculus [12]): 0.1
Activity (Mus musculus [13]): 0.04 mg/kg

CCCN(CC1CC1)C1Cc2ccc(O)c3c2C2C(O3)C(NC(=O)/C=C/C(=O)OC)CC[C@]21O (some centres undefined)
AD50 (Mus musculus [12]): 1.25 ug brain-1

Oc1ccc2c3c1OC1c4[nH]c5ccccc5c4C[C@@]4(O)[C@@H](C2)N(Cc2ccccc2)CCC314 (some centres undefined)
Ki [2]: 115 nM
Ki [3]: 134 nM
Ratio [7]: 46
Ki (Mu-type opioid receptor): 5330 nM

Oc1ccc2c3c1O[C@H]1c4[nH]c5c(c4C[C@@]4(O)[C@@H](C2)N(CC2CC2)CC[C@]314)C[C@@]1(O)[C@H]2Cc3ccc(O)c4c3[C@@]1(CCN2CC1CC1)[C@H]5O4
Activity (Mus musculus [1]): inactive

CN1CC[C@]23c4c5ccc(O)c4O[C@H]2[C@@H](O)C=C[C@H]3[C@H]1C5.CN1CC[C@]23c4c5ccc(O)c4O[C@H]2[C@@H](O)C=C[C@H]3[C@H]1C5.O=S(=O)(O)O
Activity (Mus musculus [9]): 0.73 mg/kg
Activity (Mus musculus [10]): 0.4 mg/kg
Activity (Mus musculus [11]): 3.1 mg/kg
